Marks after values point to notes of the source that are not given here.
Key:
[1] = test system: KK-Ay mice; experiment: Serum metabolic parameters in high-fat diet fed diabetic KK-Ay mice; format: in vivo, mouse; conditions: serum, 20 mg/kg for 14 days
Source text: KK-Ay mice (KK/Upj-Ay/J) are animal models with moderate obese and diabetes with insulin resistance. KK-Ay mice develop hyperglycemia, hyperinsulinemia, glucose intolerance and obesity as well as fat accumulation in liver by eight weeks of age. Pancreatic islets are hypertrophied and the β-cells are degranulated. db/db mice (BKS.Cg-Dockr+/+ Lepr^db/Jnju) are animal models of type II diabetes. They have the phenotype of insulin resistance. These model mice were used to detect the functions of our compounds on metabolic diseases.
(§1) 8-10 weeks age mice were maintained as example 4, and fed with high-fat diet (Research Diets, D12492). Mice were i.p. injected with compounds once daily for 7, 10, 11 or 14 days as indicated in each table. After the last compounds injection, mice were fasted for 6 hours with free access to water, and then sacrificed. Part of each liver was fixed in 4% paraformaldehyde for H&E staining, and other liver tissues were stored in liquid nitrogen for enzyme activity measurement and gene expression analysis by RT-PCR. The serums were collected to measure metabolic parameters, including serum glucose, insulin, cholesterol, free fatty acid (FFA) and triglyceride levels. Serum glucose was analyzed using glucose oxidase method (Applygen, Beijing, China). The blood glucose in Table 11 was measured with Berenger blood glucose test strips (B/BRAUN, German) from blood by cutting mice tail after the 6th injection and following fast for 16 hours. Serum cholesterol and FFA were analyzed using Cholesterol Assay Kit and FFA Assay Kit (Bioassay Systems, USA; Nanjing Jiancheng Bioengineering Institute, China; FFA ELISA, R&D, USA), respectively. Serum triglyceride was analyzed using Triglyceride Assay Kit (Bioassay Systems, USA; WAKO Chemicals Inc., Japan; Applygen, Beijing, China). Liver triglyceride was analyzed using Tissue triglyceride assay kit (Applygen, Beijing, China). Serum insulin levels were measured by the Ultra Sensitive Mouse Insulin ELISA Kit (Crystal Chem. Inc., USA). RNA was isolated using Tissue RNA kit (Omega Bio-Tek, GA). The first strand cDNA were obtained by TAKARA reverse transcription kit. Real-time quantitative PCR were performed on a CFX96™ Real-Time PCR Detection System (Bio-Rad) using SYBR Premix Ex Taq™ (TAKARA). Relative mRNA expression levels were normalized to actin levels.

[2] = test system: genes related to metabolism in liver of KK-Ay mice; experiment: Liver mRNA levels of metabolism genes in KK-Ay mice (RT-PCR); format: in vivo, mouse; conditions: 20 mg/kg for 14 days
Method: as §1
Triglyceride accumulation is due to the imbalance between triglyceride synthesis and clearance. One key gene controlling hepatic lipogenesis is SREBP-1c, whose up-regulation has been implicated in occurrence of hepatic steatosis. Liver-specific inhibition of ChREBP improves hepatic steatosis and insulin resistance in ob/ob mice (see e.g., Renaud (2006) Diabetes, 55(8):2159-70.). […] The gene expression pattern in KK-Ay mice liver further explained the underlying molecular mechanism for the reduction of lipid accumulation by the FXR-ligand compounds (Table 9).

[3] = vehicle = 1, listed as feroline
[4] = vehicle = 1, listed as tschimganine

Structure (SMILES) | Cholesterol (mg/dl) [1] | FFA (μM) [1] | Glucose (mg/dl) [1] | Triglyceride (mg/dl) [1] | mRNA levels in liver, CHREBP ([2]; vehicle = 1) | mRNA levels in liver, FDFT1 ([2]; vehicle = 1) | mRNA levels in liver, G6PC ([2]; vehicle = 1) | mRNA levels in liver, GK ([2]; vehicle = 1) | mRNA levels in liver, SREBP1c ([2]; vehicle = 1) | mRNA levels in liver, CHREBP [2, 3] | mRNA levels in liver, SREBP1c [2, 3] | mRNA levels in liver, CHREBP [2, 4] | mRNA levels in liver, SREBP1c [2, 4]
C/C1=C\CCC(C)(O)/C=C/C(C(C)C)C(OC(=O)c2ccc(O)cc2)C1 (stereo not drawn) [Feroline] | 116 ± 10^a mg/dl | 122 ± 30^b μM | 177 ± 16^a mg/dl | 136 ± 8^a mg/dl | 0.4 ± 0.1^b | 0.75 ± 0.1^a | 0.66 ± 0.07^a | 0.74 ± 0.11 | 0.3 ± 0.08^b | decreased | decreased |  | 
COc1cc(C(=O)O[C@H]2C[C@H]3CC[C@]2(C)C3(C)C)ccc1O [Tschimganine] |  | 151 ± 14^a μM | 123 ± 10^b mg/dl | 134 ± 15^a mg/dl | 0.43 ± 0.08^a | 0.77 ± 0.06^a | 0.59 ± 0.08^a | 0.54 ± 0.07^a | 0.38 ± 0.05^a |  |  | decreased | decreased

Source: US20180116993A1, “MODULATORS OF FARNESOID X RECEPTOR AND METHODS FOR THE USE THEREOF” (XIAMEN UNIVERSITY, priority 2015, published 2018)
